Measured values reported in US20240400983A1, “CELL AGGREGATE INCLUDING PITUITARY HORMONE-PRODUCING CELLS AND METHOD FOR PRODUCING SAME” (Sumitomo Pharma Co., Ltd., priority 2021, published 2024).
No end group written: not given here.

Key:
[1] = test system: cell aggregates containing pituitary hormone-producing cells (day 63 sort, DX treated for 14 days); assay: GH stimulation test using GRF and GH suppression test using somatostatin; type: cell-based, human; conditions: day 63 sort + 40 days, DX 14 days; GRF 2 μg/mL, 24 hr
Experimental: Using cell aggregates obtained by purifying and reaggregating cell aggregates on day 63 after the start of differentiation induction, suspension culturing for 40 days, and treating with DX for 14 days, a GH stimulation test using GRF and a GH suppression test using somatostatin were conducted. Fifteen cell aggregates were transferred to a 6-well culture plate (manufactured by SUMITOMO BAKELITE CO., LTD., for suspension culturing, culture area 9.2 cm^2) containing a serum-free medium (2 mL) supplemented with 20% KSR, cultured for 24 hr under conditions of 37° C., 40% O2, and the culture supernatant was recovered. The cell aggregates were washed with a serum-free medium supplemented with 20% KSR, transferred to a 6-well culture plate containing a new serum-free medium (2 mL) supplemented with 20% KSR, and GRF 2 μg/mL or somatostatin 100 ng/mL was added. After culturing for 24 hr under condition of 37° C., 40% O2, the culture supernatant was recovered. […]

[2] = test system: cell aggregates containing pituitary hormone-producing cells (reaggregated EpCAM-positive cells from human ES cells); assay: ACTH stimulation test using CRH or dexamethasone on reaggregated EpCAM-positive cell aggregates (ACTH ELISA of culture supernatant); type: cell-based; conditions: 24 hr
Experimental: An ACTH stimulation test using CRH (manufactured by NIPRO ES PHARMA CO., LTD.) was performed using cell aggregates obtained by purifying and reaggregating cell aggregates on day 62 after the start of differentiation induction and suspension culturing for 41 days. Twenty cell aggregates were transferred to a 10 cm suspension culture dish containing a serum-free medium (10 mL) supplemented with 20% KSR, cultured for 24 hr under condition of 37° C., 40% 02, and the culture supernatant was recovered. The cell aggregates were washed with a serum-free medium supplemented with 20% KSR, transferred to a new 10 cm suspension culture dish containing a serum-free medium (10 mL) supplemented with 20% KSR, and CRH 5 μg/mL was added. After culturing for 24 hr under condition of 37° C., 40% O2, the culture supernatant was recovered. The ACTH concentration in the collected culture supernatant was measured by the ELISA method used in clinical testing (testing outsourced to SRL, Inc.).
In addition, the response of EpCAM-positive cell reaggregates to hormones was also examined. On day 60 after the start of differentiation induction, cell sorting was performed using an anti-EpCAM antibody, and then EpCAM-positive cells were reaggregated and cultured until day 103 after the start of differentiation induction. Thereafter, an ACTH stimulation test using CRH (manufactured by NIPRO ES PHARMA CO., LTD.) or dexamethasone (DX, manufactured by Aspen Japan K.K.) was conducted. Specifically, 20 cell aggregates were transferred to a 10 cm suspension culture dish containing 10 mL of serum-free medium supplemented with 20% KSR, and after culturing for 24 hr under conditions of 37° C., 40% 02, the culture supernatant was recovered. […] The ACTH concentration in the recovered culture supernatant was measured by the ELISA method used in clinical testing (testing outsourced to SRL, Ltd.). […]

hypopituitary mice = assay: Transplantation of EpCAM-positive cell reaggregates under the kidney capsule of hypopituitary mice; blood ACTH with CRH, dexamethasone or LPS stimulation; type: in vivo, mouse; set-up: dose or concentration left out as unconfirmed; conditions: CRH intraperitoneal; blood 1 hr after; 4, 12, 24 weeks after transplantation
Experimental: Thereafter, the cells were cultured up to day 107 after the start of differentiation induction and transplanted to under the capsule of the left kidney of hypopituitary mice (10-17 weeks old) whose pituitary was surgically removed (transplantation group). A control group (sham group) was also set in which only the transplantation procedure was performed and no EpCAM-positive cells were transplanted. In addition, hypopituitary mice whose pituitary gland was surgically removed were produced by performing using a transaural approach on SCID mice (7-9 weeks old, male). […] CRH stimulation was applied to the transplantation group and the sham group, and the effect on ACTH secretion capacity was examined. Specifically, mice were administered with CRH (2 pg/kg, intraperitoneal administration) 4, 12, or 24 weeks after transplantation, and blood was collected before CRH administration and 1 hr after CHR administration. Each blood ACTH concentration was measured using ACTH ELISA kit (MD Bioproducts).

[3] = test system: cell aggregates from human iPS cells; assay: Comparison of SAG treatment period on ACTH secretion capacity of cell aggregates from human iPS cells; type: cell-based; conditions: SAG until day 30 versus continued after day 30 (days 61, 103, 131)
Experimental: Cell aggregates containing hypothalamic cells, pituitary progenitor cells, and pituitary hormone-producing cells were produced using the same differentiation induction method as in Example 1 (method without cell sorting using anti-EpCAM antibody). Regarding the SAG treatment period, two groups of a group in which SAG is added from immediately after the start of differentiation induction until day 30 (see FIG. 2), and a group so in which SAG is added from immediately after the start of differentiation induction and after day 30 (until days 61, 103, and 131) were set, and the ACTH secretion capacity was compared.

In the case of “GRF: GRF used for the GH stimulation test (YADAIFTNSYRKVLGQLSARKLLQDIMSRQQGESNQERGARARL; ends and bridges not checked; UniProt P01286 32-75, looked up)”, the “increase of the amount of GH secretion by addition of GRF” value [1] was “a little less than two times”.
In the case of `C[C@@H]1C[C@H]2[C@@H]3CCC4=CC(=O)C=C[C@]4(C)[C@@]3(F)[C@@H](O)C[C@]2(C)[C@@]1(O)C(=O)CO` [dexamethasone], the “decrease of ACTH secretion amount by dexamethasone stimulation” value ([2]; day 60 sort, cultured to day 103, 500 ng/mL dexamethasone) was “about 50%”.
For “CRH: CRH (manufactured by NIPRO ES PHARMA CO., LTD.) used for the ACTH stimulation test (SEEPPISLDLTFHLLREVLEMARAEQLAQQAHSNRKLMEII; ends and bridges not checked; UniProt P06850 154-194, looked up)”, the “increase of ACTH secretion amount by CRH stimulation” value ([2]; day 60 sort, cultured to day 103, 5 μg/mL CRH) was “about 2.2 times”, the “increase of the amount of ACTH secretion by addition of CRH” value ([2]; day 62 sort + 41 days suspension culture, CRH 5 μg/mL) was “a little less than two times” and the “blood ACTH concentration after CRH stimulation in transplantation group” value (hypopituitary mice) was “further increase”.
In the case of `CNC1CCC(N(Cc2cccc(-c3ccncc3)c2)C(=O)c2sc3ccccc3c2Cl)CC1` (stereo not drawn) [SAG, N-Methyl-N′-(3-pyridinylbenzyl)-N′-(3-chlorobenzo[b]thiophene-2-carbonyl)-1,4-diaminocyclohexane], the “ACTH secretion capacity depending on SAG treatment period” value [3] was “improved by stopping SAG treatment on day 30”.
